# pEC50: −log10 of the molar value.
# Legend:
# Candida albicans [1] = assay: Antifungal activity against Candida albicans; assay type: functional, organism-based; details: for MIC: Candida albicans
# Candida albicans [2] = assay: Antifungal activity against Candida albicans incubated for 24 hrs by TTC staining method; assay type: functional
# Candida parapsilosis = assay: Antifungal activity against Candida parapsilosis; assay type: functional; details: Lodderomyces parapsilosis
# Cryptococcus neoformans [3] = assay: Antifungal activity against Cryptococcus neoformans; assay type: functional
# Kluyveromyces marxianus = assay: Antifungal activity against Candida kefyr; assay type: functional
# Candida tropicalis = assay: Antifungal activity against Candida tropicalis; assay type: functional
# Pichia kudriavzevii = assay: Antifungal activity against Candida krusei; assay type: functional
# Nakaseomyces glabratus = assay: Antifungal activity against Candida glabrata; assay type: functional
# Rhizoctonia solani = assay: Antifungal activity against Rhizoctonia solani; assay type: functional, organism-based
# Candida albicans [4] = assay: Antifungal activity against Candida albicans incubated for 24 hrs by well diffusion method; assay type: functional
# Sclerotinia [5] = assay: Antifungal activity against rape Sclerotinia rot at 50 ug/ml relative to control; assay type: functional; details: for Activity: dose 50 µg/ml; for inhibition at 50 µg/mL: Sclerotinia
# Sclerotinia [6] = assay: Antifungal activity against sunflower Sclerotinia rot at 50 ug/ml relative to control; assay type: functional; details: dose 50 µg/ml
# [7] = tested on: Botryosphaeria berengeriana; assay: Antifungal activity against Physalospora pyricola assessed as inhibition rate of fungal growth at 50 mg/kg relative to control; assay type: functional
# [8] = tested on: Botryosphaeria berengeriana; assay: Antifungal activity against Physalospora pyricola relative to control; assay type: functional
# Bipolaris maydis [9] = assay: Antifungal activity against Bipolaris maydis assessed as inhibition rate of fungal growth at 50 mg/kg relative to control; assay type: functional
# Curvularia lunata = assay: Antifungal activity against Curvularia lunata; assay type: functional, organism-based
# Bipolaris oryzae [10] = assay: Antifungal activity against Bipolaris oryzae; assay type: functional, organism-based
# Bipolaris maydis [11] = assay: Antifungal activity against Bipolaris maydis relative to control; assay type: functional; parameters: concentration or dose not given beside the values
# Alternaria solani [12] = assay: Antifungal activity against Alternaria solani assessed as inhibition rate of fungal growth at 50 mg/kg relative to control; assay type: functional
# Phytophthora litchii = assay: Antifungal activity against Phytophthora litchii assessed as inhibition of growth rate at 100 mg/L relative to control; assay type: functional
# Gaeumannomyces graminis = assay: Antifungal activity against Gaeumannomyces graminis; assay type: functional, organism-based
# Bipolaris oryzae [13] = assay: Antifungal activity against Helminthosporium oryzae assessed as inhibition of growth rate at 100 ug/ml by disc diffusion method relative to control; assay type: functional
# Aspergillus niger = assay: Antifungal activity against Aspergillus niger assessed as inhibition of growth rate at 100 ug/ml by disc diffusion method relative to control; assay type: functional
# Bipolaris oryzae [14] = assay: Antifungal activity against Bipolaris oryzae incubated for 7 days; assay type: functional; details: 168 h, time 7 day
# Botrytis cinerea = assay: Antifungal activity against Botrytis cinerea; assay type: functional, organism-based
# [15] = tested on: Cryptococcus deuterogattii; assay: Antifungal activity against Cryptococcus gattii VGII incubated for 24 to 48 hrs by 96-well plate method; assay type: functional, Cryptococcus gattii species complex; details: time 24-48 hrs
# Alternaria solani [16] = assay: Antifungal activity against Alternaria solani relative to control; assay type: functional; parameters: concentration or dose not given beside the values
# Cryptococcus neoformans [17] = assay: Antifungal activity against Cryptococcus neoformans incubated for 24 to 48 hrs by 96-well plate method; assay type: functional; details: time 24-48 hrs
# Candida albicans [18] = assay: Antifungal activity against Candida albicans incubated for 24 to 48 hrs by 96-well plate method; assay type: functional; details: time 24-48 hrs
# Fusarium solani [19] = assay: Antifungal activity against Fusarium solani incubated for 72 hrs; assay type: functional, organism-based; details: for inhibition (INH): time 72 hrs; for pEC50: Fusarium solani, 72 h
# Fusarium solani [20] = assay: Antifungal activity against Fusarium solani relative to control; assay type: functional
# Mucor hiemalis = assay: Antifungal activity against Mucor hiemalis by 96-well plate method; assay type: functional
# Alternaria brassicae = assay: Antifungal activity against Alternaria brassicae; assay type: functional
# Alternaria alternata = assay: Antifungal activity against Alternaria alternata; assay type: functional
# Cytospora mali = assay: Antifungal activity against Valsa mali; assay type: functional
# [21] = tested on: Colletotrichum gloeosporioides; assay: Antifungal activity against Colletotrichum gloeosporioides; assay type: functional
# Saccharomyces cerevisiae [22] = assay: Antifungal activity against Saccharomyces cerevisiae assessed as diameter of zone inhibition at 100 ug per disk incubated for 24 hrs; assay type: functional; details: read-out: DIZ
# [23] = tested on: Colletotrichum gloeosporioides; assay: Antifungal activity against Colletotrichum gloeosporioides assessed as diameter of zone inhibition at 100 ug per disk incubated for 24 hrs; assay type: functional; details: read-out: DIZ
# Phyllosticta citricarpa = assay: Antifungal activity Phyllosticta citricarpa against assessed as diameter of zone inhibition at 100 ug per disk incubated for 24 hrs; assay type: functional; details: read-out: DIZ
# Candida albicans [24] = assay: Antifungal activity against Candida albicans incubated for 72 hrs; assay type: functional
# Saccharomyces cerevisiae [25] = assay: Antifungal activity against Saccharomyces cerevisiae; assay type: functional
# Metarhizium anisopliae = assay: Antifungal activity against Metarhizium anisopliae assessed as reduction of growth rate relative to control; assay type: functional; parameters: scale not given: the % may be the effect or the level left
# [26] = tested on: Trichophyton interdigitale; assay: Antifungal activity against Trichophyton interdigitale; assay type: functional
compound,measurement,setting,value
C[n+]1ccc2c3ccccc3n(-n3c4ccccc4c4cc[n+](C)cc43)c2c1.[I-].[I-],EC50,Candida albicans [1],0.5 uM/ml
c1ccc2c(c1)c1ccncc1n2-n1c2ccccc2c2ccncc21,EC50,Candida albicans [1],> 1 uM/ml
O=[N+]([O-])c1cccc(-c2nc(-c3n[nH]c(=S)o3)cc3c2[nH]c2ccccc23)c1,MIC,Candida albicans [2],3.1 µg/mL
CCCCCCCC[C@@H]1N[C@H](C(=O)OC)Cc2c1[nH]c1ccccc21,MIC,Candida parapsilosis,> 94.7 µg/mL
same,MIC,Cryptococcus neoformans [3],14.8 µg/mL
same,MIC,Kluyveromyces marxianus,23.7 µg/mL
same,MIC,Candida tropicalis,> 94.7 µg/mL
same,MIC,Candida albicans [1],> 94.7 µg/mL
same,MIC,Pichia kudriavzevii,> 94.7 µg/mL
same,MIC,Nakaseomyces glabratus,23.7 µg/mL
CCCCCCCC[C@H]1N[C@H](C(=O)OC)Cc2c1[nH]c1ccccc21,MIC,Candida parapsilosis,14.8 µg/mL
same,MIC,Cryptococcus neoformans [3],7.41 µg/mL
same,MIC,Kluyveromyces marxianus,3.67 µg/mL
same,MIC,Candida tropicalis,7.41 µg/mL
same,MIC,Candida albicans [1],14.8 µg/mL
same,MIC,Pichia kudriavzevii,7.41 µg/mL
same,MIC,Nakaseomyces glabratus,3.67 µg/mL
COc1ccc(-c2nc(NC(=O)NC(=O)c3c(F)cccc3F)cc3c2[nH]c2ccccc23)cc1,EC50,Rhizoctonia solani,277 µg/mL
C=CCCCCCCCCCOC(=O)c1cc2c([nH]c3ccccc32)c(-c2ccc(OC)cc2)n1,MIC,Candida albicans [4],8.6 µg/mL
same,MIC,Candida albicans [1],8.6 µg/mL
Fc1ccc(Cn2c3ccccc3c3ccnc(-c4nc5ccccc5[nH]4)c32)cc1,Activity,Sclerotinia [5],79.89%
Cc1nccc2c3ccccc3n(Cc3cn(-c4ccc(C(F)(F)F)cc4)nn3)c12,Activity,Sclerotinia [6],86.93%
CC1NC(C(=O)N/N=C/c2ccc(Cl)c(Cl)c2)Cc2c1[nH]c1ccccc21 (stereo not given),inhibition in vivo at 50 mg/kg,[7],97%
same,Activity,[8],97%
same,inhibition in vivo at 50 mg/kg,Bipolaris maydis [9],80%
C#CCn1c2ccccc2c2cc(C)ncc21,EC50,Curvularia lunata,6.73 µg/mL
CCCCCN1CCc2c([nH]c3ccccc23)C1,EC50,Bipolaris oryzae [10],110 µg/mL
CCCCn1c2ccccc2c2ccnc(-c3nc4ccccc4[nH]3)c21,Activity,Sclerotinia [5],80.46%
c1ccc(Cn2c3ccccc3c3ccnc(-c4nc5ccccc5[nH]4)c32)cc1,inhibition at 50 µg/mL,Sclerotinia [5],88.5%
Cc1nc(/C=C/C(=O)O)cc2c1[nH]c1ccccc12,Activity,Bipolaris maydis [11],9.8%
same,inhibition in vivo at 50 mg/kg,Alternaria solani [12],10.5%
same,inhibition in vivo at 50 mg/kg,Bipolaris maydis [9],9.8%
O=C(Nc1ccccn1)c1cc2c([nH]c3ccccc32)c(-c2ccccc2)n1,inhibition at 100 µg/mL,Phytophthora litchii,95.9%
CC(C)c1nc(C(N)=O)cc2c1[nH]c1ccccc12,pEC50,Gaeumannomyces graminis,5.55
COc1cc(C2NCCc3c2[nH]c2ccccc32)ccc1O (stereo not given),inhibition at 100 µg/mL,Bipolaris oryzae [13],22.4%
same,inhibition at 100 µg/mL,Aspergillus niger,21.6%
c1ccc(-c2nc(-c3nnc(C4CC4)o3)cc3c2[nH]c2ccccc23)cc1,EC50,Rhizoctonia solani,4.2 µg/mL
COc1cc(-c2nc(NC(=O)Nc3ccc(C(F)(F)F)cc3)cc3c2[nH]c2ccccc23)cc(OC)c1OC,EC50,Rhizoctonia solani,281 µg/mL
Cc1nccc2c3ccccc3n(Cc3cn(-c4ccncc4)nn3)c12,Activity,Sclerotinia [6],84.47%
Cc1cc2c3ccccc3n(C(C)C)c2cn1,EC50,Curvularia lunata,4.23 µg/mL
C=CCCCCCCCCCOC(=O)c1cc2c([nH]c3ccccc32)c(-c2ccc(O)cc2)n1,MIC,Candida albicans [4],2.8 µg/mL
same,MIC,Candida albicans [1],2.8 µg/mL
COc1cc(-c2nc(NC(=O)NC(=O)c3c(F)cccc3F)cc3c2[nH]c2ccccc23)cc(OC)c1OC,EC50,Rhizoctonia solani,131 µg/mL
COc1cc(C(=O)NC(=S)Nc2cc3c([nH]c4ccccc43)c(-c3cc(OC)c(OC)c(OC)c3)n2)cc(OC)c1OC,EC50,Rhizoctonia solani,293 µg/mL
Oc1ccccc1C1NCCc2c1[nH]c1ccccc21 (stereo not given),inhibition at 100 µg/mL,Bipolaris oryzae [13],19.8%
same,inhibition at 100 µg/mL,Aspergillus niger,21.2%
CCCCCCCCN1CCc2c([nH]c3ccccc23)C1,MIC,Bipolaris oryzae [14],28 µg/mL
COC(=O)c1cc2c([nH]c3ccccc32)c(C(N)=O)n1,pEC50,Gaeumannomyces graminis,6.35
same,pEC50,Botrytis cinerea,4.85
Cc1nccc2c1[nH]c1c([N+](=O)[O-])cccc12,MIC,[15],40 µg/mL
same,Activity,Alternaria solani [16],88.9%
same,Activity,Bipolaris maydis [11],94.7%
same,MIC,Cryptococcus neoformans [17],40 µg/mL
same,MIC,Candida albicans [18],40 µg/mL
CC(=O)Oc1ccc2c(c1)c1ccnc3ccc(=O)n2c31,inhibition (INH),Fusarium solani [19],86%
same,Activity,Fusarium solani [20],86%
CN(C)c1ccc(C2NCCc3c2[nH]c2ccccc32)cc1 (stereo not given),inhibition at 100 µg/mL,Bipolaris oryzae [13],21.6%
same,inhibition at 100 µg/mL,Aspergillus niger,20.8%
CC(C)CCCC(=O)c1nc(C(=O)O)cc2c1[nH]c1ccccc12,MIC,Mucor hiemalis,8.3 µg/mL
CCn1c2ccccc2c2ccnc(-c3nc4ccccc4[nH]3)c21,inhibition at 50 µg/mL,Sclerotinia [5],92%
COc1ccc(C2c3[nH]c4ccccc4c3C[C@H]3C(=O)N4CCC[C@H]4C(=O)N23)cc1 (stereo not given in full),MIC,Alternaria brassicae,12.5 µg/mL
same,MIC,Alternaria alternata,12.5 µg/mL
same,MIC,Cytospora mali,12.5 µg/mL
same,MIC,[21],6.25 µg/mL
NC(=O)c1cc2c([nH]c3ccccc32)c(-c2ccccn2)n1,pEC50,Gaeumannomyces graminis,5.55
Cc1nccc2c3ccccc3n(Cc3cn(-c4ccccc4)nn3)c12,Activity,Sclerotinia [6],85.04%
COC(=O)c1cc2c([nH]c3ccccc32)c(C(=O)OC)n1,pEC50,Gaeumannomyces graminis,5.94
Cc1nccc2c3ccccc3n(Cc3cn(-c4cc(F)c(F)c(F)c4)nn3)c12,Activity,Sclerotinia [6],85.98%
C=Cc1nc(C(=O)O)cc2c1[nH]c1ccccc12,zone of inhibition at 100 µg/disc,Saccharomyces cerevisiae [22],9 mm
same,zone of inhibition at 100 µg/disc,[23],16 mm
same,zone of inhibition at 100 µg/disc,Phyllosticta citricarpa,17 mm
CCCCCn1c2ccccc2c2cc(C)ncc21,EC50,Curvularia lunata,13.8 µg/mL
CO/C=C(/C(=O)OC)c1ccccc1Oc1cc(Oc2ccccc2C#N)ncn1 [AZOXYSTROBIN],Activity,Sclerotinia [6],88.07%
same,inhibition at 50 µg/mL,Sclerotinia [5],88.5%
COC(=O)Nc1nc2ccccc2[nH]1 [CARBENDAZIM],pEC50,Fusarium solani [19],5.36
same,Activity,Sclerotinia [6],89.77%
COC1=CC(=O)C[C@@H](C)[C@]12Oc1c(Cl)c(OC)cc(OC)c1C2=O [GRISEOFULVIN],inhibition at 100 µg/mL,Bipolaris oryzae [13],20.4%
same,inhibition at 100 µg/mL,Aspergillus niger,20.3%
COc1ccc2c3c([nH]c2c1)C(C)=NCC3 [HARMALINE],MIC,Candida albicans [24],666 µg/mL
CC1=NCCc2c1[nH]c1cc(O)ccc21 [HARMALOL],MIC,Candida albicans [24],750 µg/mL
COc1ccc2c(c1)[nH]c1c(C)nccc12 [HARMINE],Activity,Alternaria solani [16],15.7%
same,Activity,Bipolaris maydis [11],22.7%
same,MIC,Candida albicans [24],500 µg/mL
CC(=O)N1CCN(c2ccc(OCC3COC(Cn4ccnc4)(c4ccc(Cl)cc4Cl)O3)cc2)CC1 (stereo not given) [KETOCONAZOLE],MIC,Alternaria brassicae,12.5 µg/mL
same,MIC,Alternaria alternata,12.5 µg/mL
same,MIC,Saccharomyces cerevisiae [25],2.5 µg/mL
same,MIC,Cytospora mali,12.5 µg/mL
same,MIC,[21],12.5 µg/mL
COCC(=O)N(c1c(C)cccc1C)C(C)C(=O)OC (stereo not given) [METALAXYL],inhibition at 100 µg/mL,Phytophthora litchii,93.4%
Clc1ccc(COC(Cn2ccnc2)c2ccc(Cl)cc2Cl)c(Cl)c1 (stereo not given) [MICONAZOLE],MIC,Candida albicans [4],7.8 µg/mL
c1ccc2c(c1)[nH]c1cnccc12 [NORHARMANE],Activity,Metarhizium anisopliae,11.9%
same,MIC,[26],100 µg/mL
c1ccc2[nH]c(-c3cscn3)nc2c1 [THIABENDAZOLE],pEC50,Fusarium solani [19],4.90
same,inhibition (INH),Fusarium solani [19],89.3%
OCC1=C[C@H](N[C@H]2C[C@H](CO)[C@@H](O[C@@H]3O[C@H](CO)[C@@H](O)[C@H](O)[C@H]3O)[C@H](O)[C@H]2O)[C@H](O)[C@@H](O)[C@@H]1O [VALIDAMYCIN],EC50,Rhizoctonia solani,198 µg/mL

# Source: ChEMBL document CHEMBL5136985, “Natural and synthetic β-carboline as a privileged antifungal scaﬀolds” (Eur J Med Chem, 2022)
